Results on 1 compound are retold here after patent publication US9862684B2, “Modulation of K2P channels” (The Regents of the University of California, priority 2013, dated 2018).

The structures appear in SMILES notation.

In assay [1] the target is T1, K2P2.1 (TREK-1)-3G (Mus musculus, UniProt P97438, D309G/I307G).
T1 sequence (P97438 1-426 I307G/D309G): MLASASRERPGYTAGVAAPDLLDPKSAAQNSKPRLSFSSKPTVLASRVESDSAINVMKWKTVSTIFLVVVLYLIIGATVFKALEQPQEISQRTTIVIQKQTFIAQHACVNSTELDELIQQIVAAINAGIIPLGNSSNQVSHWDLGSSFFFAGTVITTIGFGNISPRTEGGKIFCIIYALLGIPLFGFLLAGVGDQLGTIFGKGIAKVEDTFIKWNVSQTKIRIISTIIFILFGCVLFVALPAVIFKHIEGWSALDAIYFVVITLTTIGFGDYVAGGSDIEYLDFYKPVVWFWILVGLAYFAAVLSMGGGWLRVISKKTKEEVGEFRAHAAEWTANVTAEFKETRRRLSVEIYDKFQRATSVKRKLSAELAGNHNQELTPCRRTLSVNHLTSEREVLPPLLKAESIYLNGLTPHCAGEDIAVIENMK
The assay is described as follows: Two-electrode voltage clamp, Xenopus oocytes, triple glycine mutant uncoupling Ct. The class given is cell-based, Murine. As to conditions: 3G mutant. As for the experimental part: (§1) I-V curves were measured by two-electrode voltage clamp of Xenopus oocytes in b, 90 mM [K^+]o. or c-e, 2 mM [K^+]o. […] Data (were measured at 20 mV (90 mM [K^+]o) or 0 mV (2 mM [K^+]o), normalized to basal channel activity, and fitted to the Hill equation. Error bars indicate s.e., n≧6, N≧2.
(§2) Murine K2P channels were cloned into pGEMHE/pMO {Bagriantsev, 2011}, IRES-GFP (Invitrogen), or pYES2-MET25 (high copy 2μ, URA3) {Minor, 1999} for expression in oocytes, HEK-293T cells, and yeast, respectively, using standard molecular biology procedures, and verified by DNA sequencing.
(§3) Two-electrode voltage clamp recordings were performed from defolliculated stage V-VI Xenopus oocytes 24-48 hours after injection with 0.015-6.0 ng cRNA, using microelectrodes (0.3-3.0 MΩ) filled with 3M KCl. Data was acquired using the GeneClamp 500B (MDS Analytical Technologies) amplifier controlled by the pClamp software (Molecular Devices), and digitized at 1 kHz using Digidata 1332A (MDS Analytical Technologies). Recording solutions (mM): 2K (96 NaCl, 2 KCl, 1.8 CaCl2, 2 MgCl2), 90K (90 KCl, 8 NaCl, 1.8 CaCl2, 2 MgCl2), were buffered 5 mM HEPES pH 7.4. For K2P recordings, currents we elicited by a 1 second long ramp from −150 to +50 mV from a holding potential of −80 mV (2K), or −100 to +50 mV from a holding potential of 0 mV (90K). […]
In general terms: Two-electrode voltage clamp is typically applied to oocytes expressing channels or transporters.

Assay [2] addresses T2, K2P2.1 (TREK-1)-3G (Mus musculus, UniProt P97438, I307G/D309G).
T2 sequence (P97438 1-426 I307G/D309G): T1 sequence (P97438 1-426 I307G/D309G)
The assay is described as above. The class given is cell-based, Murine. As to conditions: 3G mutant. As for the experimental part:
as §1, §2, §3

Usually EC50 stands for the concentration at which the effect is half-maximal. As for `CC1(C)c2cc(Cl)ccc2N(CCc2nnn[nH]2)c2ccc(Cl)cc21` [ML67-33, 2,7-dichloro-9,9-dimethyl-10-[2-(1H-tetrazol-5-yl)ethyl]acridine], a half-maximal effect on K2P2.1 (TREK-1)-3G [1] (EC50) was put at 49.4 ± 0.1 µM. Further, on K2P2.1 (TREK-1)-3G [2], the “Emax (fold)” value is 12.9±1.0 fold.
